In US20030013905A1, “Salts of cis-4-cyano-4[3(cyclopentyloxy)-4-methoxyphenyl]cyclohexane-1-carboxylic acid” (priority 2002, published 2003):
Counter-ions that a name gives are not always drawn.

Assay: Water uptake on exposure to air (Karl Fisher water content)
Assay type: physicochemical
Details: recrystallized sodium salt 1(b), exposed to air at room temperature for 1 week; 2.9% before exposure; said to indicate fairly high hydroscopic nature

Compound: COc1ccc(C2(C#N)CCC(C(=O)O)CC2)cc1OC1CCCC1 (stereo not drawn) [Example 1, cis-4-cyano-4-[3-(cyclopentyloxy)-4-methoxyphenyl]cyclohexane-1-carboxylic acid sodium salt]
- water content on Karl Fisher after exposure to air: 22.9%
